Where “and” joins values, the source holds several entries; their conditions need not be identical. Equal values may be shown once.

The record followed here is publication PMC9564300, “Cytotoxic Mechanism of Momilactones A and B against Acute Promyelocytic Leukemia and Multiple Myeloma Cell Lines” (Cancers, 2022).

Test [1] has as its system acute promyelocytic leukemia HL-60 cell line. Briefly: Cell viability (MTT) assay on HL-60. The test is classed as cell-based. As to conditions: Homo sapiens; for IC50: HL-60, 48 h. As for the experimental part:
(§1) In this assay, culture media was prepared by adding fetal bovine serum (10%), L-glutamine (5 mM), penicillin (100 IU/mL), and streptomycin (100 µg/mL) to IMDM (Sigma-Aldrich, St. Louis, MO, USA). The cells (5 × 10^3 cells/well) were seeded into a 96-well plate filled with 100 µL of culture media and placed in a CO2 incubator at 37 °C. After 24 h, the cells were treated with MA, MB, and MAB with different concentrations (0.5, 1, 5, and 10 µM) for 48 h. Subsequently, 10 µL of the MTT solution (5 mg/mL, Sigma-Aldrich) was pipetted into each well. The cells were continuously incubated for 4 h. Finally, 100 µL of cell lysis buffer (10% SDS in 0.01 M HCl) was applied to dissolve the colored formazan crystals. Culture media instead of momilactones was used as the negative control. Meanwhile the drugs consisting of doxorubicin, all-trans retinoic acid (ATRA), the mixture of ATRA and arsenic trioxide (ATRA/ATO) (1:1, w/w), and bortezomib were tested as the standard inhibitors. The absorbance at 595 nm was scanned to determine the cell growth rate using a spectrophotometer (SpectraMAX M5, Molecular Devices, Sunnyvale, CA, USA). All tests were performed with three replications. The cytotoxic activity (% inhibition) of momilactones and/or inhibitors on the tested cell lines was as follows:Inhibition (%) = (ANC − AS)/ANC × 100(1) where ANC: absorbance of reaction with negative control, and AS: absorbance of reaction with momilactone and/or inhibitor.
(§2) Dose-responding curves and IC50 values (the required concentration for inhibiting 50% of cell viability) of momilactones and the standard inhibitors for cytotoxicity against tested cell lines were established. A lower IC50 indicates a stronger cytotoxic activity.

Test [2] deals with non-cancerous MeT-5A cell line. Briefly: Cell viability (MTT) assay on MeT-5A. As to conditions: Homo sapiens, 48 h. The class given is cell-based. As for the experimental part:
as §1, §2

In test [3] the test system is multiple myeloma U266 cell line. Briefly: Cell viability (MTT) assay on U266. Particulars: Homo sapiens; for IC50: U-266, U266, 48 h. The test is classed as cell-based. Here is the method: as §1, §2
Test [4] deals with phosphorylated p-38/total p-38. Briefly: Western blotting in HL-60: phosphorylated p-38/total p-38. The class given is cell-based, human. Particulars: HL-60, 5 µM, control 0.48. Here is the method:
(§3) The cells (5 × 10^5 cells/well) were cultured and treated in triplicate following the same methods as the apoptosis and cell cycle assays. The cell lysates were conducted by rinsing cells with PBS, followed by adding 2× loading buffer two times (4% SDS, 10% 2-mercaptoethanol, 20% glycerol, 0.004% bromophenol blue, 0.125 M Tris-HCl, pH 6.8). The extracted protein ([…]) was subjected to sodium dodecyl sulfate (SDS)-polyacrylamide gels, applying 10% acrylamide, and subsequently transferred to a polyvinylidene fluoride membrane (Takara Bio, Shiga, Japan) by electroblotting. The membrane was blocked using 3% skim milk in PBS-0.05% Tween 20 (PBS-T) at 25 °C for 1 h. The incubation with each antibody (2 µg/mL) against anti-rabbit total p-38/MAPK, phosphorylated p-38/MAPK, BCL-2, procaspase-3, cleaved caspase-3, CDK1/cdc2, cyclin B1, and GAPDH (BioLegend, San Diego, CA, USA) in blocking buffer was conducted overnight at 4 °C. The following step was performed by washing the membrane with PBS-T in triplicate. The collected membrane was incubated with a secondary antibody of horseradish peroxidase-labeled goat anti-rabbit IgG (20 ng/mL) (IBL, Gunma, Japan) at 37 °C for 1 h. […] The relative expression (RE) was calculated by normalizing the intensity of targeted proteins to the intensity of the housekeeping protein GAPDH.

Test [5] has as its system multiple myeloma U266 cell line. The test can be described thus: Cell apoptosis (annexin V) assay on U266. The class given is cell-based, human. As to conditions: U266, 5 µM. As for the experimental part: (§4) The procedure was conducted in triplicate following Lam et al.. In brief, the cells (5 × 10^5 cells/well) were seeded into a 6-well plate filled with 1.5 mL of culture media and cultured in a CO2 incubator for 24 h with the same condition as mentioned in the MTT assay. The cells were then treated with momilactones at a concentration of 5 µM for 24 and 48 h. The non-treated cells were used as a control. Harvested cells were washed twice with cold phosphate-buffered saline (PBS). After that, the control and treated cells were incubated with annexin V-conjugated fluorescein isothiocyanate (FITC) (Biolegend, San Diego, CA, USA) and propidium iodide (PI) for 15 min at 25 °C. The obtained cells were dissolved in 450 µL of PBS. The solution was filtered by a nylon membrane to prevent cell clumping and kept on ice until analysis. The intensities of annexin V-FITC and PI and the percentages of apoptotic cells were instantly determined by a flow cytometer (BD, Franklin Lakes, NJ, USA).

Test [6] has as its system cleaved caspase-3/procaspase-3. The test can be described thus: Western blotting in HL-60: cleaved caspase-3/procaspase-3. The test is classed as cell-based, human. Particulars: HL-60, 5 µM, control 0.17. Here is the method:
as §3

Test [7] concerns phosphorylated p-38/total p-38. Briefly: Western blotting in U266: phosphorylated p-38/total p-38. The class given is cell-based, human. As to conditions: U266, 5 µM, control 1.00. Here is the method:
as §3

The test system of test [8] is BCL-2. The test can be described thus: Western blotting in U266: BCL-2. As to conditions: U266, 5 µM. The class given is cell-based, human. Here is the method: as §3
Test [9] has as its system non-cancerous MeT-5A cell line. Briefly: Cell apoptosis (annexin V) assay on MeT-5A. As to conditions: 5 µM. The test is classed as cell-based, human. As for the experimental part:
as §4

Test [10] relates to BCL-2. Briefly: Western blotting in HL-60: BCL-2. The class given is cell-based, human. As to conditions: HL-60, 5 µM. As for the experimental part:
as §3

The test system of test [11] is non-cancerous MeT-5A cell line. The test can be described thus: Cell cycle assay (PI, flow cytometry) on MeT-5A. As to conditions: 5 µM, 48 h. The test is classed as cell-based, human. Here is the method: (§5) The cells (5 × 10^5 cells/well) were cultured and treated in triplicate following the same methods as the apoptosis assay. The FxCycle PI/RNase staining solution was applied according to the manufacturer’s instructions (Calbiochem, Darmstadt, Germany). The cell cycle distribution at each phase of G1, S, and G2 was determined based on the cell’s DNA content. The percentages of cells in different phases of the cell cycle were quantified by a flow cytometer (BD, Franklin Lakes, NJ, USA). In brief, the collected cells were washed with ice-cold PBS. Subsequently, ice-cold PBS in pure ethanol was added to disperse the cells. The obtained solution was stored at 4 °C for 24 h for fixing. For analysis, the cells were incubated with 10 mg/mL of RNase A (Sigma-Aldrich) for 5 min on ice. The following step was conducted by adding 1 mg/mL of PI (in PBS). After incubating for 10 min at room temperature, the cells were dissolved in 450 µL of PBS. The solution was then filtered using a nylon membrane to remove cell clumping before analysis. Subsequently, the flow cytometric measurement was immediately performed.

Test [12] has as its system CDK1. Briefly: Western blotting in HL-60: CDK1. The class given is cell-based, human. As to conditions: HL-60, 5 µM, control 1.55. As for the experimental part:
as §3

Test [13] has as its system acute promyelocytic leukemia HL-60 cell line. Briefly: Cell apoptosis (annexin V) assay on HL-60. The class given is cell-based, human. As to conditions: HL-60, 5 µM. Here is the method: as §4
For test [14], the system named is cleaved caspase-3/procaspase-3. Briefly: Western blotting in U266: cleaved caspase-3/procaspase-3. The test is classed as cell-based, human. As to conditions: U266, 5 µM. As for the experimental part:
as §3

Test [15] relates to acute promyelocytic leukemia HL-60 cell line. The test can be described thus: Cell cycle assay (PI, flow cytometry) on HL-60. The class given is cell-based, human. As to conditions: HL-60, 5 µM. Here is the method:
as §5

In test [16] the test system is cyclin B1. Briefly: Western blotting in HL-60: cyclin B1. As to conditions: HL-60, 5 µM, control 1.17. The class given is cell-based, human. Here is the method:
as §3

With `CC1=C(/C=C/C(C)=C/C=C/C(C)=C/C(=O)O)C(C)(C)CCC1` [ATRA, all-trans retinoic acid, reference compound], half-maximal inhibition in [1] (IC50) was put at 3.99 ± 0.16 µM.
Compound `COc1cccc2c1C(=O)c1c(O)c3c(c(O)c1C2=O)C[C@@](O)(C(=O)CO)C[C@@H]3O[C@H]1C[C@H](N)[C@H](O)[C@H](C)O1` [Doxorubicin, doxorubicin, reference compound] showed an inhibition at 10 µM in [2] of 49.2 ± 6.17%. The IC50 in test [3] came out at 0.24 ± 0.01 µM; in [1], 5.22 ± 0.15 µM.
Take `C=C[C@]1(C)CC[C@@H]2C(=C[C@H]3OC(=O)[C@@]4(C)C(=O)CC[C@@]2(C)[C@@H]34)C1` [MA, momilactone A]: the inhibition at 10 µM is 28.5 ± 2.93% in [2]; 41% in test [3] (U-266, U266, 10 µM, 48 h, read-out: U266 inhibition percentage at 10 µM); 30.2% in [1] (HL-60, 10 µM, 48 h, read-out: HL-60 inhibition percentage at 10 µM).
In the case of `C=C[C@]1(C)CC[C@@H]2C(=C[C@H]3OC(=O)[C@]4(C)[C@H]3[C@]23CC[C@]4(O)OC3)C1` [MB, momilactone B], the “relative expression (RE) of phosphorylated p-38/total p-38” value is 1.15 in [4] (24 h) and 0.96 in test [4] (48 h). 10 µM produced 38 ± 2.29% inhibition in test [2]. Besides, the “% apoptosis (FITC+)” value in test [5] (24 h) is 16.9%; in test [5] (48 h) it was 18.0%; in [9] (24 h), 2.9% and 2.87%; in test [9] (48 h), 10.3%; in test [13] (24 h) it was 1.1%; in [13] (48 h), 40.5%. Besides, the FITC- cells in [5] (24 h) is on record as 83.1%; in test [5] (48 h), 82.0%; in [9] (24 h), 97.1%; in test [9] (48 h), 89.7%; in [13] (24 h), 98.9%; in test [13] (48 h) it was 59.5%. The values for the IC50 in test [3] and in [1] were 5.09 ± 0.58 µM and 4.49 ± 0.34 µM, respectively. Also, the “RE of cleaved caspase-3/procaspase-3” value in [6] (24 h) came out at 0.56; in test [6] (48 h), 0.77. Further, the results for the “RE of phosphorylated p-38/total p-38” value in test [7] (24 h) and in test [7] (48 h) were 2.47 and 2.35, respectively. Further, the “inhibition of BCL-2 expression compared to the control” value in [8] (24 h) is recorded as 2.37 times. Also, the “decrease of BCL-2 expression over the control” value in test [8] (48 h) is listed as 4.41 fold. Besides, the “increase in cell apoptosis compared to the non-treated control” value in [9] (48 h) was found to be 2.67 fold. The entries for the “BCL-2 RE value, fold lower than the control” value in test [10] (24 h) and in [10] (48 h) were 1.92 fold and 2.32 fold, respectively. Besides, the “increase of cell percentage of sub-G1 compared to the untreated control” value in test [11] was determined as 2.59 times. For the same compound, the “RE of CDK1” value was 1.10 in [12] (24 h) and 0.75 in [12] (48 h). For the same compound, in [13] (24 h), the “increase in apoptotic process over the control” value was found to be 1.30 fold. Further, the entries for the “increase of cleaved caspase-3/procaspase-3 expression over the control” value in test [14] (24 h) and in test [14] (48 h) were 5.33 times and 8.83 times, respectively. Besides, the “cells in G2 phase” value in test [15] (24 h) came to 30.1%; in test [15] (48 h), 29.2%. The “RE of cyclin B1” value was determined as 0.80 in test [16] (24 h) and 0.69 in test [16] (48 h).
As for `CC(C)C[C@H](NC(=O)[C@H](Cc1ccccc1)NC(=O)c1cnccn1)B(O)O` [bortezomib, reference compound], the IC50 in test [3] came to 0.008 µM.
